The target in assay [1] is T1, Epidermal growth factor receptor (Homo sapiens, UniProt P00533). The experiment in a line: Inhibition of tyrosine kinase activity of Epidermal growth factor receptor from human A431 carcinoma cells.
For assay [2], the target named is T1, Epidermal growth factor receptor. The experiment in a line: Inhibition of tyrosine kinase activity of Epidermal growth factor receptor from human A431 cells.
The target of assay [3] is Fibroblast growth factor receptor (Homo sapiens, UniProt P22607+P11362+P22455+P21802). The experiment in a line: Inhibition of Fibroblast growth factor receptor. In kind it is protein assay.
The target in assay [4] is Proto-oncogene tyrosine-protein kinase Src (Homo sapiens, UniProt P12931). The experiment in a line: Inhibition of c-src enzyme.
The target in a further assay is Protein kinase C (PKC). The experiment in a line: Inhibition of Protein kinase C. In kind it is protein assay.
In assay [5] the target is Fibroblast growth factor receptor (Mus musculus, UniProt P21803+Q03142+P16092+Q61851). The experiment in a line: Inhibition of FGF-mediated mitogenesis in Swiss 3T3 cells. The assay is classed as functional, cell-based.
Assay [6] can be described thus: Inhibitory activity against v-src enzyme.
Assay [7] is described as follows: Inhibition of Platelet-derived growth factor receptor.
Assay [8] deals with Platelet-derived growth factor receptor (Mus musculus, UniProt P05622+P26618). The experiment in a line: Inhibition of PDGF-mediated mitogenesis in Swiss 3T3 cells. In kind it is functional, cell-based.
The target in another assay is Insulin receptor (Homo sapiens, UniProt P06213). The experiment in a line: Inhibition of Insulin receptor.
Chain of Insulin receptor (P06213 28-758 limits assumed): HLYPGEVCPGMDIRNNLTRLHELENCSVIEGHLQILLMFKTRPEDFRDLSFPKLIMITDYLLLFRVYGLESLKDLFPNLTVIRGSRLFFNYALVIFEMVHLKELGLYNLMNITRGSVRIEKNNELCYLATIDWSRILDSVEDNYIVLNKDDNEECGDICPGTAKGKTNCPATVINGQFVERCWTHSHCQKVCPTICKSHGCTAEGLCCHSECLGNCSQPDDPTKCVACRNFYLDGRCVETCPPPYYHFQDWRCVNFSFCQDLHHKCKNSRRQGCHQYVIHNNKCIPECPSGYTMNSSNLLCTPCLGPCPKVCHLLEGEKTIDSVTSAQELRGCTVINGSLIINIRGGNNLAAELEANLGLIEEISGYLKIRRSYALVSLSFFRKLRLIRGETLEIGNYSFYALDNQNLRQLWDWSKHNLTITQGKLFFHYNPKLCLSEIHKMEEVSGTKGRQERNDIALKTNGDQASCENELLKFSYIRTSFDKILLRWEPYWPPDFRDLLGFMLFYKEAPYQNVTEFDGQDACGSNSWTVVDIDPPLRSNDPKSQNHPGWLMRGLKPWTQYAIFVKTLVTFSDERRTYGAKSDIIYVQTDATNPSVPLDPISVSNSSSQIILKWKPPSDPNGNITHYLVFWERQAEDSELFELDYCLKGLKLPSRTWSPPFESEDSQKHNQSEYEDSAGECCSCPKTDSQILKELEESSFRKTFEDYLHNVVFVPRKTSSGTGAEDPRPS
Chain of Insulin receptor (P06213 763-1382 limits assumed): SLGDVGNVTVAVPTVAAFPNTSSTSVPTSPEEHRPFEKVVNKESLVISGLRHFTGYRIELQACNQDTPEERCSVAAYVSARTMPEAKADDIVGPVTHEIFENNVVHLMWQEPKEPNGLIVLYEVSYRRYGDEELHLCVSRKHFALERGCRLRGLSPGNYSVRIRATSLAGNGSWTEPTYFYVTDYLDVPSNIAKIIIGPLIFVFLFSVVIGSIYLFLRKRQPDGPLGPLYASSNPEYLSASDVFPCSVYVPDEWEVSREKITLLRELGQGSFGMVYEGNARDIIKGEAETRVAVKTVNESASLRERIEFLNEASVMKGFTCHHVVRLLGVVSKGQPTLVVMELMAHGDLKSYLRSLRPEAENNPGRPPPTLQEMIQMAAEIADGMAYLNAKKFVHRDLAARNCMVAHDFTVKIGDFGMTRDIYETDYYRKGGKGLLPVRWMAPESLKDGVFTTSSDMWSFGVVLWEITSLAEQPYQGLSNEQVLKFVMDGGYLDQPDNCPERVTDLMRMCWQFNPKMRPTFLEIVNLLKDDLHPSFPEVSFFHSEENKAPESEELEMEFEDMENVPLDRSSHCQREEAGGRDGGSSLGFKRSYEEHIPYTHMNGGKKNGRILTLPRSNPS

T1 sequence (P00533 whole entry): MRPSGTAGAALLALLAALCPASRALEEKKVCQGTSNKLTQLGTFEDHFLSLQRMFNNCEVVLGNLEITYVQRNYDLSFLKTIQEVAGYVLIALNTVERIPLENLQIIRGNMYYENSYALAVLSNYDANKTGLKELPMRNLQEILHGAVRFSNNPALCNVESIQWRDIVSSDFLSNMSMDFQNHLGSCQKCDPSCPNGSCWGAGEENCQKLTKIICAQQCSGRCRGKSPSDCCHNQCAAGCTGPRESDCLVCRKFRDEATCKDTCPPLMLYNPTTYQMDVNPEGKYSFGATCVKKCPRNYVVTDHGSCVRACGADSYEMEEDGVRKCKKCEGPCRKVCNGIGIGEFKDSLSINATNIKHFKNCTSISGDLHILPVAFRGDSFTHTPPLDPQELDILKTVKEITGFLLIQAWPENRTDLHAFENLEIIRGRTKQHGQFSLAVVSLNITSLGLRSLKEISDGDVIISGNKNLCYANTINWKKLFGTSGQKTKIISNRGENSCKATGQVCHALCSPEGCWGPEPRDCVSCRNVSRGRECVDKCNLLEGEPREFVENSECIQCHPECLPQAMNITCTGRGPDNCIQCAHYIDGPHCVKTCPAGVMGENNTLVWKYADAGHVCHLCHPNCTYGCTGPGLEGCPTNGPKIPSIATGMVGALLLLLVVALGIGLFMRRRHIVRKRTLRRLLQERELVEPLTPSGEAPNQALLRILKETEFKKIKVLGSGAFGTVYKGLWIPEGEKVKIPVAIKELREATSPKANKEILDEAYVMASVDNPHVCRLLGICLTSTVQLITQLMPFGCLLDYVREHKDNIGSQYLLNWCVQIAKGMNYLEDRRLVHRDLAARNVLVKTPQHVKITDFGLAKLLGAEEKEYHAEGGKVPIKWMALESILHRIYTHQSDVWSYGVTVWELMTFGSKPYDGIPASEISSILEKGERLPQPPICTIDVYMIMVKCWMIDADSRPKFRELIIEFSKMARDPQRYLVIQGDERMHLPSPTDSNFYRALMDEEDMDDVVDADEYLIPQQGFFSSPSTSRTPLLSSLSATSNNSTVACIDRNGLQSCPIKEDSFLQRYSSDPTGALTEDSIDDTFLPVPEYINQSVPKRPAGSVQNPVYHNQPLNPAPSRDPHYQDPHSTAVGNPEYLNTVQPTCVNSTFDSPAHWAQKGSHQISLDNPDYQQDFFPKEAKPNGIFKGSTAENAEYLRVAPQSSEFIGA
Chain of Proto-oncogene tyrosine-protein kinase Src (P12931 2-536 limits assumed): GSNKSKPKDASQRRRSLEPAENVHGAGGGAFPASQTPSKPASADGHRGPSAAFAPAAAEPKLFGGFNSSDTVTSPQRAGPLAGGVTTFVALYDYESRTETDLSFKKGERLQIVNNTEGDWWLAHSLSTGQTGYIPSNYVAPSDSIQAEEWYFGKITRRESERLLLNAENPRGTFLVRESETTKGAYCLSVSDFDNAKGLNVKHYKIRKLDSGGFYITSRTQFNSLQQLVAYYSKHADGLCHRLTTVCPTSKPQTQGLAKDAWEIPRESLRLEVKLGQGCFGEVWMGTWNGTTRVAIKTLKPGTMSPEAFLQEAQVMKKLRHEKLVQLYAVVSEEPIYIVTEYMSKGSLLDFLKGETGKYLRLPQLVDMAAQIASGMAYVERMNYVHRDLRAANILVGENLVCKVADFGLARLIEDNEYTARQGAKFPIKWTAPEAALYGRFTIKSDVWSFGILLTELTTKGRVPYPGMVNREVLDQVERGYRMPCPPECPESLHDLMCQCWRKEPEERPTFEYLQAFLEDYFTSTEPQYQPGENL

Take `Brc1cccc(Nc2ncnc3ccc4cc[nH]c4c23)c1`: the IC50 – broadly, the concentration at which inhibition is half-maximal – in [1] was determined as 1.24 nM. In [1], `Brc1cccc(Nc2ncnc3c2ccc2[nH]cnc23)c1` registered an IC50 of 272 nM. `Brc1cccc(Nc2ncnc3cc4[nH]nnc4cc23)c1` gave an IC50 in assay [2] of 4.1 nM. This counts as single-digit nanomolar. Same read-out and setting: for `CN(C)CCn1cnc2cc3c(Nc4cccc(Br)c4)ncnc3cc21` the value was 22 nM. In the case of `Cn1cnc2cc3ncnc(Nc4cccc(Br)c4)c3cc21`, the IC50 in assay [1] came to 0.01 nM. For `CN(C)CCn1cnc2cc3ncnc(Nc4cccc(Br)c4)c3cc21`, in [2], the midpoint of inhibition, the IC50, lay at 1.32 nM.

Regarding `Brc1cccc(Nc2ncnc3cc4ncsc4cc23)c1`, half-maximal inhibition in assay [1] (IC50) was put at 44 nM. In turn, `Brc1cccc(Nc2ncnc3cc4cn[nH]c4cc23)c1` registered an IC50 in assay [2] of 0.34 nM. In the case of `Brc1cccc(Nc2ncnc3cc4[nH]ncc4cc23)c1`, the IC50 in assay [2] turned out to be 0.44 nM. Molecule `Brc1cccc(Nc2ncnc3cc4[nH]ccc4cc23)c1` had an IC50 in assay [1] of 0.44 nM. On the same count and under the same terms, for `Cc1nc2cc3ncnc(Nc4cccc(Br)c4)c3cc2[nH]1` the value was 0.29 nM. In the case of `CN(C)CCn1cnc2c(Cl)c3c(Nc4cccc(Br)c4)ncnc3cc21`, the IC50 in [2] amounted to 203 nM. On to `Brc1cccc(Nc2ncnc3cc4ccccc4cc23)c1`, for which, in assay [1], the IC50 was 0.003 nM. Take `Brc1cccc(Nc2ncnc3cc4[nH]cnc4cc23)c1`: the IC50 (in [3]; in assay [4]; against Protein kinase C (PKC); in assay [5]; in assay [6]; in assay [7]) was more than 50000 nM in each case. For the same molecule, the IC50 (in [8]; on Insulin receptor) was more than 50000 nM each time.

The record behind these values is ChEMBL document CHEMBL1129035, “Tyrosine kinase inhibitors. 9. Synthesis and evaluation of fused tricyclic quinazoline analogues as ATP site inhibitors of the tyrosine kinase activity of the epidermal growth factor receptor” (J Med Chem, 1996).
